Key:
[1] = tested on: folate-receptor-positive human KB cell tumor xenografts; assay: Biodistribution of 111In radiotracer in KB tumor-bearing athymic mice after intravenous administration; format: in vivo; settings: for Percentage of Injected 111In Dose Per Organ (Tissue): Muscle: muscle assumed 42% of body mass
Procedure: Our primary animal model for evaluation of the biodistribution and pharmacokinetics of folate-receptor-targeted radiopharmaceuticals has been athymic mice bearing subcutaneously implanted folate-receptor-positive human KB cell tumors. […] After 3 weeks on folate-free diet, mouse serum folate levels drop to 25±7 nM from the initial 720±260 nM serum folate level when the animals are fed normal rodent chow. This dietary intervention is believed to be a reasonable manipulation of the animal model, since the mice would have serum folate levels only slightly higher than the folate concentration of normal human serum. Thus, in these mouse biodistribution studies the radiotracer is competing for tumor folate receptors with physiologically relevant concentrations of endogenous unlabeled serum folate.
The substantial retention of ^111In in the kidneys is fully consistent with the binding of ^111In-CYK4-013 to tissue folate receptors, since the renal proximal tubule is a known normal tissue site of folate receptor expression. […] The behavior of the ^111In-CYK4-013 radiopharmaceutical in this animal model (Table 2) is very similar to that observed for ^111In-DTPA-Folate (Table 3).
Results. Similar to ^111In-DTPA-Folate, ^111In-CYK4-013 selectively localized in the folate-receptor-positive tumor xenografts, and afforded prolonged tumor retention of ^111In (5.4±0.8; 5.5±1.1; and 3.6±0.6% ID/g at 1 hour, 4 hours, and 24 hours, respectively) (Table 2). […] Blockable binding was also observed in the kidneys, where the folate receptor occurs in the proximal tubules.

[2] = HPLC analysis of stability of the isolated radiometal complex; format: physicochemical; settings: room temperature
Procedure: The major radioactive HPLC peak, eluting with a retention time of 14.1 minutes, was collected. […] HPLC conditions: Solvent A=56 mM NH4OAc in water; Solvent B═CH3CN. Flow rate=1 mL/min on 4.6×250 mm C18 reverse-phase column. Linear gradient conditions: 5% B at zero minutes, ramping to 25% B at 25 minutes, then ramping to 60% B at 27 minutes and 100% B at 30 minutes.
HPLC-purified ^64Cu-CY4-036 was removed from the HPLC solvents by solid-phase extraction. A C18 Sep-Pak Light solid phase extraction cartridge (Millipore, Inc.) was conditioned by washing with ethanol followed by water. The HPLC-purified ^64Cu-CY4-036 was loaded onto the C18 Sep-Pak after dilution with water to 5% acetonitrile, the Sep-Pak was washed with 20 mL water, and the ^64Cu-CY4-036 product recovered by fractional elution with ethanol. The resulting ethanol solution of ^64Cu-CY4-036 was evaporated to dryness under a stream of N2 at room temperature, and the ^64Cu-CY4-036 was reconstituted in water. Analytical HPLC confirmed the radiochemical purity, and stability, of the isolated ^64Cu-CY4-036 product. HPLC conditions: Solvent A=53 mM NH4OAc in water; Solvent B═CH3CN. Flow rate=1 mL/min on 4.6×250 mm C18 reverse-phase analytical column. Linear gradient conditions: 5% B at zero minutes, ramping to 25% B at 25 minutes, then ramping to 60% B at 27 minutes and 100% B at 30 minutes.

[3] = 4 Hours, Blocked: co-injection of folic acid dihydrate 4.1 ± 0.4 mg/kg
[4] = 24 Hours after intravenous administration

- Percentage of Injected 111In Dose Per Gram (Tissue Wet Mass): Heart [1, 3]: 0.015 ± 0.010 % ID/g
- Percentage of Injected 111In Dose Per Gram (Tissue Wet Mass): Kidney (one) [1, 3]: 0.90 ± 0.59 % ID/g
- Percentage of Injected 111In Dose Per Gram (Tissue Wet Mass): Liver & Gall Bladder [1, 3]: 0.051 ± 0.029 % ID/g
- Percentage of Injected 111In Dose Per Gram (Tissue Wet Mass): Lungs [1, 3]: 0.041 ± 0.027 % ID/g
- Percentage of Injected 111In Dose Per Gram (Tissue Wet Mass): Muscle [1, 3]: 0.080 ± 0.057 % ID/g
- Percentage of Injected 111In Dose Per Gram (Tissue Wet Mass): Spleen [1, 3]: 0.028 ± 0.017 % ID/g
- Percentage of Injected 111In Dose Per Gram (Tissue Wet Mass): Stomach, Intestines & Contents [1, 3]: 1.7 ± 1.1 % ID/g
- Percentage of Injected 111In Dose Per Organ (Tissue): Stomach, Intestines & Contents [1, 3]: 4.6 ± 2.8 Percentage of Injected 111In D
- Tumor/blood ratio [1, 3]: 7.5 ± 2.4
- Tumor/kidney ratio [1, 3]: 0.12 ± 0.03
- Tumor/liver ratio [1, 3]: 2.2 ± 0.6
- Tumor/muscle ratio [1, 3]: 1.5 ± 0.7
- Percentage of Injected 111In Dose Per Gram (Tissue Wet Mass): Tumor ([1]; 4 Hours, Blocked: co-injection of folic acid dihydrate 4.1 ± 0.4 mg/kg, 0.4 mg/kg): 0.12±0.07 % ID/g
- Percentage of Injected 111In Dose Per Organ (Tissue): Muscle [1, 3]: 1.0 ± 0.7 Percentage of Injected 111In D
- Percentage of Injected 111In Dose Per Gram (Tissue Wet Mass): Blood [1, 4]: 0.035 ± 0.002 % ID/g
- Percentage of Injected 111In Dose Per Gram (Tissue Wet Mass): Heart [1, 4]: 1.2 ± 0.5 % ID/g
- Percentage of Injected 111In Dose Per Gram (Tissue Wet Mass): Kidney (one) [1, 4]: 105 ± 7 % ID/g
- Percentage of Injected 111In Dose Per Gram (Tissue Wet Mass): Liver & Gall Bladder [1, 4]: 1.2 ± 0.6 % ID/g
- Percentage of Injected 111In Dose Per Gram (Tissue Wet Mass): Lungs [1, 4]: 0.72 ± 0.21 % ID/g
- Percentage of Injected 111In Dose Per Gram (Tissue Wet Mass): Muscle [1, 4]: 1.9 ± 0.6 % ID/g
- Percentage of Injected 111In Dose Per Gram (Tissue Wet Mass): Spleen [1, 4]: 0.27 ± 0.08 % ID/g
- Percentage of Injected 111In Dose Per Gram (Tissue Wet Mass): Stomach, Intestines & Contents [1, 4]: 1.2 ± 0.2 % ID/g
- Percentage of Injected 111In Dose Per Gram (Tissue Wet Mass): Tumor [1, 4]: 3.6±0.6 % ID/g
- Percentage of Injected 111In Dose Per Organ (Tissue): Liver & Gall Bladder [1, 4]: 1.7 ± 0.9 Percentage of Injected 111In D
- Percentage of Injected 111In Dose Per Organ (Tissue): Stomach, Intestines & Contents [1, 4]: 3.3 ± 0.6 Percentage of Injected 111In D
- Tumor/blood ratio [1, 4]: 105 ± 20
- Tumor/kidney ratio [1, 4]: 0.035 ± 0.008
- Tumor/liver ratio [1, 4]: 3.7 ± 1.4
- Tumor/muscle ratio [1, 4]: 2.0 ± 0.6
- primary whole-body clearance pathway ([1]; athymic mice, intravenous administration): Urinary excretion
- time the isolated HPLC peak remains stable [2]: at least 7 days
Compound: Nc1nc(O)c2nc(CNc3ccc(C(=O)NCCOCCOCCNC(=O)CN(CCN(CCN(CC(=O)O)CC(=O)O)CC(=O)O)CC(=O)O)cc3)cnc2n1.[111In+3] [^111In-CYK4-013]
- Percentage of Injected 111In Dose Per Organ (Tissue): Blood [1, 3]: 0.025 ± 0.015 Percentage of Injected 111In D
- Percentage of Injected 111In Dose Per Organ (Tissue): Heart [1, 3]: 0.0023 ± 0.0016 Percentage of Injected 111In D
- Percentage of Injected 111In Dose Per Organ (Tissue): Kidney (one) [1, 3]: 0.23 ± 0.15 Percentage of Injected 111In D
- Percentage of Injected 111In Dose Per Organ (Tissue): Liver & Gall Bladder [1, 3]: 0.074 ± 0.044 Percentage of Injected 111In D
- Percentage of Injected 111In Dose Per Organ (Tissue): Lungs [1, 3]: 0.0082 ± 0.0051 Percentage of Injected 111In D
- Percentage of Injected 111In Dose Per Organ (Tissue): Spleen [1, 3]: 0.0049 ± 0.0029 Percentage of Injected 111In D
- Percentage of Injected 111In Dose Per Organ (Tissue): Tumor [1, 3]: 0.0094 ± 0.0061 Percentage of Injected 111In D
- Percentage of Injected 111In Dose Per Organ (Tissue): Blood [1, 4]: 0.055 ± 0.002 Percentage of Injected 111In D
- Percentage of Injected 111In Dose Per Organ (Tissue): Heart [1, 4]: 0.18 ± 0.06 Percentage of Injected 111In D
- Percentage of Injected 111In Dose Per Organ (Tissue): Kidney (one) [1, 4]: 26.8 ± 2.7 Percentage of Injected 111In D
- Percentage of Injected 111In Dose Per Organ (Tissue): Lungs [1, 4]: 0.34 ± 0.03 Percentage of Injected 111In D
- Percentage of Injected 111In Dose Per Organ (Tissue): Spleen [1, 4]: 0.055 ± 0.017 Percentage of Injected 111In D
- Percentage of Injected 111In Dose Per Organ (Tissue): Tumor [1, 4]: 0.42 ± 0.4 Percentage of Injected 111In D
- Percentage of Injected 111In Dose Per Organ (Tissue): Muscle [1, 4]: 23.1 ± 7.0 Percentage of Injected 111In D
